Experimental data as given in patent US6699895B2, “2-aminothiazoline derivatives and process for preparing the same” (Aventis Pharma S.A., priority 2000, dated 2004).

Cl.NC1=N[C@H](Cc2cccs2)CS1
melting point: 125 to 127 °C
